Laboratory results published in patent publication US6124269A, “2-Halo-6-O-substituted ketolide derivatives” (priority 1998, dated 2000).
Converted amounts (≈) assume the structure as drawn.

Experiments:
Format in all cases: cell-based
[1] = test system: Staphylococcus aureus ATCC 6538P; assay: In vitro agar dilution MIC, organism code AA; conditions: Table 1B, unit assumed
Protocol: (§1) Representative compounds of the present invention were assayed in vitro for antibacterial activity as follows: Twelve petri dishes containing successive aqueous dilutions of the test compound mixed with 10 mL of sterilized Brain Heart Infusion (BHI) agar (Difco 0418-01-5) were prepared. Each plate was inoculated with 1:100 (or 1:10 for slow-growing strains, such as Micrococcus and Streptococcus) dilutions of up to 32 different microorganisms, using a Steers replicator block. The inoculated plates were incubated at 35-37° C. for 20 to 24 hours. In addition, a control plate, using BHI agar containing no test compound, was prepared and incubated at the beginning and end of each test.
(§2) An additional plate containing a compound having known susceptibility patterns for the organisms being tested and belonging to the same antibiotic class as the test compound was also prepared and incubated as a further control, as well as to provide test-to-test comparability.
(§3) After incubation, each plate was visually inspected. The minimum inhibitory concentration (MIC) was defined as the lowest concentration of drug yielding no growth, a slight haze, or sparsely isolated colonies on the inoculum spot as compared to the growth control.

[2] = test system: Staphylococcus aureus A5177; assay: In vitro agar dilution MIC, organism code BB; conditions: Table 1B, in µg/mL (unit assumed)
Protocol: as §1, §2, §3

[3] = test system: Staphylococcus aureus A-5278; assay: In vitro agar dilution MIC, organism code CC; conditions: Table 1B, unit assumed
Protocol: as §1, §2, §3

[4] = test system: Staphylococcus aureus CMX 642A; assay: In vitro agar dilution MIC, organism code DD; conditions: Table 1B, unit assumed
Protocol: as §1, §2, §3

[5] = test system: Staphylococcus aureus NCTC10649M; assay: In vitro agar dilution MIC, organism code EE; conditions: Table 1B, unit assumed
Protocol: as §1, §2, §3

[6] = test system: Staphylococcus aureus CMX 553; assay: In vitro agar dilution MIC, organism code FF; conditions: Table 1B, unit assumed
Protocol: as §1, §2, §3

[7] = test system: Staphylococcus aureus 1775; assay: In vitro agar dilution MIC, organism code GG; conditions: Table 1B, unit assumed
Protocol: as §1, §2, §3

[8] = test system: Staphylococcus epidermidis 3519; assay: In vitro agar dilution MIC, organism code HH; conditions: Table 1B, in µg/mL (unit assumed)
Protocol: as §1, §2, §3

[9] = test system: Enterococcus faecium ATCC 8043; assay: In vitro agar dilution MIC, organism code II; conditions: Table 1B, unit assumed
Protocol: as §1, §2, §3

[10] = test system: Streptococcus bovis A-5169; assay: In vitro agar dilution MIC, organism code JJ; conditions: Table 1B, unit assumed
Protocol: as §1, §2, §3

[11] = test system: Streptococcus agalactiae CMX 508; assay: In vitro agar dilution MIC, organism code KK; conditions: Table 1B, unit assumed
Protocol: as §1, §2, §3

[12] = test system: Streptococcus pyogenes EES61; assay: In vitro agar dilution MIC, organism code LL; conditions: unit assumed
Protocol: as §1, §2, §3

[13] = test system: Streptococcus pyogenes 930; assay: In vitro agar dilution MIC, organism code MM; conditions: unit assumed
Protocol: as §1, §2, §3

[14] = test system: Streptococcus pyogenes PIU 2548; assay: In vitro agar dilution MIC, organism code NN; conditions: unit assumed
Protocol: as §1, §2, §3

[15] = test system: Micrococcus luteus ATCC 9341; assay: In vitro agar dilution MIC, organism code OO; conditions: Table 1B, unit assumed
Protocol: as §1, §2, §3

[16] = test system: Micrococcus luteus ATCC 4698; assay: In vitro agar dilution MIC, organism code PP; conditions: Table 1B, in µg/mL (unit assumed)
Protocol: as §1, §2, §3

Escherichia coli JUHL = assay: In vitro agar dilution MIC, organism code QQ; conditions: Table 1B, in µg/mL (unit assumed)
Protocol: as §1, §2, §3

Escherichia coli SS = assay: In vitro agar dilution MIC, organism code RR; conditions: Table 1B, in µg/mL (unit assumed)
Protocol: as §1, §2, §3

Escherichia coli DC-2 = assay: In vitro agar dilution MIC, organism code SS; conditions: Table 1B, unit assumed
Protocol: as §1, §2, §3

Candida albicans CCH 442 = assay: In vitro agar dilution MIC, organism code TT; conditions: Table 1B, unit assumed
Protocol: as §1, §2, §3

[17] = test system: Mycobacterium smegmatis ATCC 114; assay: In vitro agar dilution MIC, organism code UU; conditions: Table 1B, in µg/mL (unit assumed)
Protocol: as §1, §2, §3

[18] = test system: Nocardia asteroides ATCC 9970; assay: In vitro agar dilution MIC, organism code VV; conditions: Table 1B, in µg/mL (unit assumed)
Protocol: as §1
as §2, with “comparability. Erythromycin A was used for this purpose.” for “comparability.”
as §3

[19] = test system: Haemophilis influenzae DILL AMP R; assay: In vitro agar dilution MIC, organism code WW; conditions: unit assumed
Protocol: as §1, §2, §3

[20] = test system: Streptococcus pneumoniae ATCC 6303; assay: In vitro agar dilution MIC, organism code XX; conditions: unit assumed
Protocol: as §1, §2, §3

[21] = test system: Streptococcus pneumoniae GYR 1171; assay: In vitro agar dilution MIC, organism code YY; conditions: Table 1B, unit assumed
Protocol: as §1, §2, §3

[22] = test system: Streptococcus pneumoniae 5979; assay: In vitro agar dilution MIC, organism code ZZ; conditions: unit assumed
Protocol: as §1, §2, §3

[23] = test system: Streptococcus pneumoniae 5649; assay: In vitro agar dilution MIC, organism code ZZA; conditions: unit assumed
Protocol: as §1, §2, §3

Compound	MIC [1] [µg/mL]	MIC [2]	MIC [3] [µg/mL]	MIC [4] [µg/mL]	MIC [5] [µg/mL]	MIC [6] [µg/mL]	MIC [7] [µg/mL]	MIC [8]	MIC [9] [µg/mL]	MIC [10] [µg/mL]	MIC [11] [µg/mL]	MIC ([12]; Table 1B) [µg/mL]	MIC ([14]; Table 1B) [µg/mL]	MIC [15] [µg/mL]	MIC [16]	MIC (Escherichia coli JUHL)	MIC (Escherichia coli SS)	MIC (Escherichia coli DC-2) [µg/mL]	MIC (Candida albicans CCH 442) [µg/mL]	MIC [17]	other results
CC[C@H]1OC(=O)[C@@](C)(F)C(=O)[C@H](C)[C@@H](O[C@@H]2O[C@H](C)C[C@H](N(C)C)[C@H]2O)[C@](C)(OC/C=C/c2cnc3ccc(NC)cc3c2)C[C@@H](C)C(=O)[C@H](C)[C@H]2NC(=O)O[C@@]21C [Example 16]	0.05 (≈ 0.0615 µM)	0.05	> 100	0.05 (≈ 0.0615 µM)	0.05 (≈ 0.0615 µM)	0.05 (≈ 0.0615 µM)	> 100	0.05	0.02 (≈ 0.0246 µM)	≤ 0.005	0.01 (≈ 0.0123 µM)	0.01 (≈ 0.0123 µM)	0.05 (≈ 0.0615 µM)	0.01 (≈ 0.0123 µM)	0.05	50	0.2	50 (≈ 61.5 µM)	> 100	0.39	MIC ([13]; Table 1B): 0.39 µg/mL (≈ 0.48 µM); MIC [18]: 0.01; MIC ([19]; Table 1B): 2 µg/mL (≈ 2.46 µM); MIC ([20]; Table 1B): 0.03 µg/mL (≈ 0.0369 µM); MIC [21]: 0.03 µg/mL (≈ 0.0369 µM); MIC ([22]; Table 1B): 1 µg/mL (≈ 1.23 µM); MIC ([23]; Table 1B): 0.25 µg/mL (≈ 0.308 µM)
CC[C@H]1OC(=O)C(C)(F)C(=O)[C@H](C)[C@@H](O[C@@H]2O[C@H](C)C[C@H](N(C)C)[C@H]2O)[C@](C)(OCC#CC(=O)c2ccc(Cl)nc2)C[C@@H](C)C(=O)[C@H](C)[C@H]2NC(=O)O[C@@]21C (stereo partly drawn) [Example 25]	0.39 (≈ 0.491 µM)	0.39	> 100	0.39 (≈ 0.491 µM)	0.78 (≈ 0.982 µM)	0.39 (≈ 0.491 µM)	> 100	0.39	0.2 (≈ 0.252 µM)	0.1 (≈ 0.126 µM)	0.1 (≈ 0.126 µM)	0.1 (≈ 0.126 µM)	0.39 (≈ 0.491 µM)	0.2 (≈ 0.252 µM)	0.39	> 100	3.1	> 100	> 100	0.78	MIC ([13]; Table 1B): 6.2 µg/mL (≈ 7.81 µM); MIC [18]: 0.2; MIC ([19]; Table 1B): 2 µg/mL (≈ 2.52 µM); MIC ([20]; Table 1B): ≤ 0.004 µg/mL; MIC [21]: ≤ 0.004 µg/mL; MIC ([22]; Table 1B): 0.06 µg/mL (≈ 0.0755 µM); MIC ([23]; Table 1B): 0.06 µg/mL (≈ 0.0755 µM)
CC[C@H]1OC(=O)[C@H](C)C(=O)[C@H](C)[C@@H](O[C@@H]2O[C@H](C)C[C@H](N(C)C)[C@H]2O)[C@](C)(OC/C=C/c2ccccc2)C[C@@H](C)C(=O)[C@H](C)[C@H]2NC(=O)O[C@@]21C [Standard B, reference compound]	–	–	–	–	–	–	–	–	–	–	–	–	–	–	–	–	–	–	–	–	MIC ([12]; Table 1D): 0.03 µg/mL (≈ 0.042 µM); MIC ([13]; Table 1D): 64 µg/mL (≈ 89.5 µM); MIC ([14]; Table 1D): 0.25 µg/mL (≈ 0.35 µM); MIC ([19]; Table 1D): 4 µg/mL (≈ 5.6 µM); MIC ([20]; Table 1D): 0.03 µg/mL (≈ 0.042 µM); MIC ([22]; Table 1D): 128 µg/mL (≈ 179 µM); MIC ([23]; Table 1D): 0.25 µg/mL (≈ 0.35 µM)
CC[C@H]1OC(=O)[C@@](C)(F)C(=O)[C@H](C)[C@@H](O[C@@H]2O[C@H](C)C[C@H](N(C)C)[C@H]2O)[C@](C)(OC/C=C/c2cnc3ccc(CS(N)(=O)=O)cc3c2)C[C@@H](C)C(=O)[C@H](C)[C@H]2NC(=O)O[C@@]21C [Example 14]	0.05 (≈ 0.057 µM)	0.1	> 100	0.1 (≈ 0.114 µM)	0.1 (≈ 0.114 µM)	0.1 (≈ 0.114 µM)	> 100	0.1	0.1 (≈ 0.114 µM)	≤ 0.005	0.01 (≈ 0.0114 µM)	0.01 (≈ 0.0114 µM)	0.2 (≈ 0.228 µM)	0.01 (≈ 0.0114 µM)	0.2	50	0.1	100 (≈ 114 µM)	> 100	3.1	MIC [18]: 0.1; MIC ([19]; Table 1B): 2 µg/mL (≈ 2.28 µM); MIC ([20]; Table 1B): ≤ 0.004 µg/mL; MIC [21]: ≤ 0.004 µg/mL; MIC ([22]; Table 1B): 2 µg/mL (≈ 2.28 µM); MIC ([23]; Table 1B): 0.25 µg/mL (≈ 0.285 µM)
